Source: patent US20250073255A1, “USE OF FA-TYPE LIPID COMPOUNDS IN PREPARATION OF NUCLEIC ACID DELIVERY REAGENT AND RELATED PRODUCT” (BEIJING BAISHIKANG PHARMACEUTICAL TECHNOLOGY (BSJPHARMA) …, priority 2021, published 2025)

System: C57BL/6 male mice
Experiment: In vivo delivery study of lipid nucleic acid mixture (oral gavage, RT-qPCR of PGY-sRNA-26 in tissues)
Set-up: species or system mouse
Conditions: for overall delivery efficacy: delivering nucleic acids into each tissue and blood tested: 100 μg lipid:10 nmol PGY-sRNA-26, all tissues and blood tested; for oral delivery of single-stranded sRNA nucleic acids into mouse blood / oral delivery of single-stranded sRNA nucleic acids into mouse brain tissue / oral delivery of single-stranded sRNA nucleic acids into mouse femur / oral delivery of single-stranded sRNA nucleic acids into mouse heart tissue / oral delivery of single-stranded sRNA nucleic acids into mouse intestinal tissue / oral delivery of single-stranded sRNA nucleic acids into mouse kidney tissue / oral delivery of single-stranded sRNA nucleic acids into mouse liver tissue / oral delivery of single-stranded sRNA nucleic acids into mouse lung tissue / oral delivery of single-stranded sRNA nucleic acids into mouse spleen tissue / oral delivery of single-stranded sRNA nucleic acids into mouse stomach tissue / oral delivery of single-stranded sRNA nucleic acids into mouse pancreatic tissue: 100 μg lipid:10 nmol PGY-sRNA-26, sampled after 12 hours; for oral delivery of single-stranded sRNA nucleic acids into mouse heart tissue: vs free uptake group; for oral delivery of single-stranded sRNA nucleic acids into mouse intestinal tissue: intestine; for oral delivery of single-stranded sRNA nucleic acids into mouse pancreatic tissue: pancreas
In short: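 Lipid (100 μg) and 10 nmol 3'-methylated single-stranded PGY-sRNA-26 were heated at 90 °C for 15 min, then given by oral gavage to mice fasted 12 h. Controls were saline and free sRNA. Blood and tissues were taken at 12 h, and levels were measured by stem-loop RT-qPCR relative to U6.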

Row | SMILES | overall delivery efficacy: delivering nucleic acids into each tissue and blood tested | oral delivery of single-stranded sRNA nucleic acids into mouse blood | oral delivery of single-stranded sRNA nucleic acids into mouse brain tissue | oral delivery of single-stranded sRNA nucleic acids into mouse femur | oral delivery of single-stranded sRNA nucleic acids into mouse heart tissue | oral delivery of single-stranded sRNA nucleic acids into mouse intestinal tissue | oral delivery of single-stranded sRNA nucleic acids into mouse kidney tissue | oral delivery of single-stranded sRNA nucleic acids into mouse liver tissue | oral delivery of single-stranded sRNA nucleic acids into mouse lung tissue | oral delivery of single-stranded sRNA nucleic acids into mouse spleen tissue | oral delivery of single-stranded sRNA nucleic acids into mouse stomach tissue | oral delivery of single-stranded sRNA nucleic acids into mouse pancreatic tissue
1 | CCCCCCCCCCCCCCO [Lipid 635, tetradecan-1-ol] | best delivery efficacy | can effectively orally deliver | can effectively orally deliver | can effectively orally deliver | can effectively orally deliver | can effectively orally deliver | can effectively orally deliver | can effectively orally deliver | can effectively orally deliver | can effectively orally deliver | can effectively orally deliver | –
2 | CC(=O)C1CCOC1=O (stereo not shown) [Lipid 612, 3-acetyloxolan-2-one] | – | – | – | can effectively orally deliver | – | can effectively orally deliver | – | can effectively orally deliver | – | – | can effectively orally deliver | –
3 | CC(C)(CC(=O)O)CC(=O)O [Lipid 598, 3,3-dimethylpentanedioic acid] | best delivery efficacy | can effectively orally deliver | can effectively orally deliver | can effectively orally deliver | can effectively orally deliver | can effectively orally deliver | can effectively orally deliver | can effectively orally deliver | can effectively orally deliver | can effectively orally deliver | can effectively orally deliver | –
4 | CCCCCCCCCCCC(C)O (stereo not shown) [Lipid 505, tridecan-2-ol] | – | can effectively orally deliver | can effectively orally deliver | – | – | – | – | can effectively orally deliver | – | – | can effectively orally deliver | –
5 | CCCCCC/C=C\CCCCCCCC(=O)OCCCCCCCCCCCCC [Lipid 813, tridecyl (Z)-hexadec-9-enoate] | – | can effectively orally deliver | can effectively orally deliver | can effectively orally deliver | can effectively orally deliver | can effectively orally deliver | can effectively orally deliver | can effectively orally deliver | can effectively orally deliver | can effectively orally deliver | can effectively orally deliver | can effectively orally deliver
6 | CCCCCCCCCCCCCC(=O)OCCCCCCCCCCCCCCC(C)C [Lipid 829, 15-methylhexadecyl tetradecanoate] | – | can effectively orally deliver | can effectively orally deliver | can effectively orally deliver | can effectively orally deliver | can effectively orally deliver | can effectively orally deliver | can effectively orally deliver | can effectively orally deliver | can effectively orally deliver | can effectively orally deliver | can effectively orally deliver
7 | CC/C=C\C/C=C\C/C=C\CCCCCCCC(=O)OCCCCCCCCCCCC [Lipid 805, dodecyl (9Z,12Z,15Z)-octadeca-9,12,15-trienoate] | – | can effectively orally deliver | can effectively orally deliver | can effectively orally deliver | can effectively orally deliver | can effectively orally deliver | can effectively orally deliver | can effectively orally deliver | can effectively orally deliver | can effectively orally deliver | can effectively orally deliver | can effectively orally deliver
8 | CCCCCCCCCCCC(N)=O [Lipid 611, dodecanamide] | – | – | – | can effectively orally deliver | – | – | – | – | – | can effectively orally deliver | can effectively orally deliver | –
9 | C=CC(=O)CCCCC [Lipid 619, oct-1-en-3-one] | – | can effectively orally deliver | can effectively orally deliver | can effectively orally deliver | – | can effectively orally deliver | can effectively orally deliver | can effectively orally deliver | – | can effectively orally deliver | can effectively orally deliver | –
10 | CCCCCC/C=C\CCCCCCCC(=O)OCCCCCCCCCCCCCCCCCCCCCCC [Lipid 825, tricosyl (Z)-hexadec-9-enoate] | – | can effectively orally deliver | can effectively orally deliver | can effectively orally deliver | can effectively orally deliver | can effectively orally deliver | can effectively orally deliver | can effectively orally deliver | can effectively orally deliver | can effectively orally deliver | can effectively orally deliver | can effectively orally deliver
11 | CCCCCCCCCCCCCCCO [Lipid 609, pentadecan-1-ol] | – | – | can effectively orally deliver | can effectively orally deliver | can effectively orally deliver | – | can effectively orally deliver | can effectively orally deliver | can effectively orally deliver | – | can effectively orally deliver | –
12 | CCCCCCCCCCCCCCC=O [Lipid 574] | – | can effectively orally deliver | can effectively orally deliver | can effectively orally deliver | can effectively orally deliver | – | can effectively orally deliver | can effectively orally deliver | – | can effectively orally deliver | can effectively orally deliver | –
